Test results reported in article PMC6152192, “Novel Methylselenoesters as Antiproliferative Agents” (Molecules : A Journal of Synthetic Chemistry and Natural …, 2017).

Legend:
[1] = tested on: BEAS-2B (non-malignant bronchial epithelial); assay: MTT viability assay, BEAS-2B; format: cell-based; details: BEAS-2B non-malignant, 72 h, MTT; for CC50: read-out: LC50 (the source's name)
Procedure, shortened: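 Cells (10,000/well; RPMI or, for BEAS-2B, DMEM with 10% FBS; 37 °C, 5% CO2) were treated 72 h with six concentrations from 0.1 to 100 μM, diluted from 0.01 M DMSO stock. MTT was added for 4 h, formazan dissolved in DMSO, absorbance read at 550 nm; GI50, TGI and LC50 derived.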

[2] = tested on: thioredoxin reductase (TrxR1); assay: Thioredoxin reductase activity assay (NADPH consumption); format: biochemical; details: 100 nM TrxR1, 227 μM NADPH, TE buffer pH 8, 45 min
Experimental: The assay was performed as previously described, but in a final volume of 200 μL in a 96-well plate. Reaction started after addition of 133 μL of TE buffer (20 mM Tris, 2 mM EDTA, pH = 8), 0.227 mM NADPH (freshly prepared) to different concentrations of compounds solved in DMSO and TrxR1 (final concentration 100 nM). NADPH consumption was followed measuring absorbance decrease at 340 nm in a VersaMax microplate reader (Molecular Devices, Sunnyvale, CA, USA) over 45 min. A background sample with DMSO without the compounds was included and subtracted from the values.
Figure 7 Compounds 5 and 15 are substrates for thioredoxin reductase but not for the glutathione-glutaredoxin system. (A) NADPH consumption indicating reduction of compounds 5, 15 or MSA as control by thioredoxin reductase. The reaction mixture contained 100 nM TrxR1, 227 μM NADPH and the corresponding amount of compound in TE buffer (20 mM Tris, 2 mM EDTA pH = 8); (B) NADPH consumption indicating reduction of MSA by glutathione in the presence or absence of glutaredoxin. The reaction mixture contained the corresponding amount of compound, 0.1 M Tris, 2 mM EDTA pH = 8, 0.1 mg/mL BSA, 1 mM GSH, 200 μM NADPH, 0.008 OD/mL yeast GR and 1 μM hGrx1 when required. Only results for MSA are shown, as compounds 5 and 15 were not reduced.

[3] = Methylselenol (CH3SeH) release by hydrolysis, quantified with DTNB (Ellman's reagent); format: physicochemical; details: 100 μM compound, 100 μM DTNB
Source text: The new compounds were designed as CH3SeH precursors. The chemical features of the selenoester functional group facilitate a nucleophilic attack (i.e., with water) which would deliver the CH3SeH residue. In order to verify if CH3SeH could be released from the molecules by hydrolysis and if the rate differed among the compounds, the reaction of CH3SeH with 5,5′-dithiobis(2-nitrobenzoic acid) (DTNB or Ellman’s reagent) in aqueous environment was monitored. Briefly, when the disulfide bridge of DTNB reacts with thiols or selenols, 2-nitro-5-thiobenzoate (TNB^2−) is released and the mixed disulfide or selenylsulfide is formed. Each released CH3SeH produces one yellow TNB^2− species, whose absorbance can be quantified at 412 nm (Figure 2A).
A stock solution of the compounds was prepared in anhydrous DMSO (10 mM). The compounds were placed in a 96-well plate in a final concentration of 100 μM. Reaction started after adding 200 μL of an aqueous 100 mM Na2HPO4 buffer (1 mM EDTA, pH = 8), containing 100 μM of DTNB from a freshly prepared 10 mM ethanolic stock, which were added just before starting the reaction. The DTNB concentration was quantified with a cysteine standard curve ([…]). Blanks for the compounds in the absence of DTNB were also included as well as a blank to measure the slow but spontaneous hydrolysis of DTNB, which was further subtracted from all the values. Absorbance was read at 412 nm in a FLUOstar Omega microplate reader (BMG LabTech, Ortenberg, Germany). Results represent means of triplicate values ± SD.
Figure 2 CH3SeH release rates are dependent on the chemical features of the molecule. Released CH3SeH was quantified through reaction with Ellman’s reagent (DTNB). (A) Proposed reaction between CH3SeH and DTNB; (B) Quantification of TNB^2− at different times. The compounds were tested at 100 μM in 200 μL of 100 mM phosphate buffer (1 mM EDTA, pH = 8). DTNB concentration was also 100 μM. Absorbance was followed at 412 nm over 72 h. A cysteine standard curve (7.5–150 μM) was used to calculate the concentration of TNB^2− over time. Compounds showing less than 15% hydrolysis at 72 h are not included, except for compound 5 as example. Error bars indicate SD of triplicates.

Row | Substance | GI50 [1] | TGI [1] | CC50 [1] | reduction by TrxR1 (NADPH consumption) [2] | CH3SeH release / hydrolysis rate ([3]; 100 mM phosphate buffer, 1 mM EDTA, pH 8, followed over 72 h) | hydrolysis at 72 h ([3]; phosphate buffer pH 8, 72 h)
1 | Dimethyl 2,5-furandicarboselenoate [Compound 15] | 2.6 ± 0.8 µM | 5.6 ± 0.9 µM | 8.6 ± 1.2 µM | substrates only for TrxR1 | more sustained release | 
2 | Methyl 3-chlorothiophen-2-carboselenoate [Compound 5] | 2.7 ± 0.5 µM | 5.3 ± 0.7 µM | 8 ± 1 µM | substrates only for TrxR1 |  | less than 15%
